Data taken from patent US20090170812A1, “Transcription factor modulating compounds and methods of use thereof” (priority 2006, published 2009).

Key:
LcrF (VirF) = LcrF (VirF) (Yersinia pestis, UniProt P28808); assay: biochemical; format: binding, Y. pseudotuberculosis
ExsA = biological target: T1, ExsA (Pseudomonas aeruginosa, UniProt P26993); assay: In vitro activity of Mar inhibitors against ExsA: cell-free DNA binding assay; settings: purified ExsA from P. aeruginosa, inhibition of DNA binding in vitro
T1 construct: made in house
T1 sequence (P26993 1-278): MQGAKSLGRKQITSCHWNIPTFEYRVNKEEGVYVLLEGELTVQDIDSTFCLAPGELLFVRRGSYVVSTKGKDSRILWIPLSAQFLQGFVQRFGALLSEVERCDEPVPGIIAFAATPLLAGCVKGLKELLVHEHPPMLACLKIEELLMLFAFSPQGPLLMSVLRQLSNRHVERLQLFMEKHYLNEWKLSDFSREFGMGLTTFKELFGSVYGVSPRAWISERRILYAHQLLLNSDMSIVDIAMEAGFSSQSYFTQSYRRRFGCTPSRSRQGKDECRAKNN

[1] = tested on: Yersinia pseudotuberculosis
P. aeruginosa = assay: Whole cell assay: cytotoxicity of P. aeruginosa toward J774 cells (CytoTox 96, LDH release); settings: percent cytotoxicity of treated P. aeruginosa toward J774 cells

Chain of LcrF (VirF) (P28808 whole entry, looked up): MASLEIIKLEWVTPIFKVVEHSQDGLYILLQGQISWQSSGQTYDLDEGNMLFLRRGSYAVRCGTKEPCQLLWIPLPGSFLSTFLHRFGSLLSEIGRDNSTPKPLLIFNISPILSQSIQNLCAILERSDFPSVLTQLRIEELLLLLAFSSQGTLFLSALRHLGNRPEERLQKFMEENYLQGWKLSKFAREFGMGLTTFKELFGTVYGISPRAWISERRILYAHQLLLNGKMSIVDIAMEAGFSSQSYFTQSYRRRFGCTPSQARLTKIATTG

| Compound | EC50 (LcrF (VirF)) [µM] | EC50 (ExsA) [µM] | Cytotoxicity at 50 μg/mL Yersinia [1] | Cytotoxicity at 50 μg/mL Pseudomonas (P. aeruginosa) |
| --- | --- | --- | --- | --- |
| COc1cc(C(=O)Nc2ccc(-c3nc4ccc([N+](=O)[O-])cc4n3O)cc2)ccc1F [AB] | 10.1 to 25 | 10.1 to 25 | * (key: *: percent cytotoxicity above 75% at 50 μg/mL; **: cytotoxicities below 75% at 50 μg/mL) | * (percent cytotoxicities above 75% at 50 mg/mL) |
| O=C(Nc1ccc(-c2nc3ccc([N+](=O)[O-])cc3n2O)cc1)c1ccccc1O [AC] | 10.1 to 25 | 10.1 to 25 | * (key: *: percent cytotoxicity above 75% at 50 μg/mL; **: cytotoxicities below 75% at 50 μg/mL) | * (percent cytotoxicities above 75% at 50 mg/mL) |
| CCc1cc(-c2nc3ccc([N+](=O)[O-])cc3n2O)ccc1NC(=O)/C=C/c1ccc(C)cc1 [AE] | < 10 | < 10 | * (key: *: percent cytotoxicity above 75% at 50 μg/mL; **: cytotoxicities below 75% at 50 μg/mL) | * (percent cytotoxicities above 75% at 50 mg/mL) |
| CC(=O)c1ccc(C(=O)Nc2ccc(-c3nc4ccc([N+](=O)[O-])cc4n3O)nc2)cc1 [AG] | > 25.1 | 10.1 to 25 | * (key: *: percent cytotoxicity above 75% at 50 μg/mL; **: cytotoxicities below 75% at 50 μg/mL) | * (percent cytotoxicities above 75% at 50 mg/mL) |
| O=C(Nc1ccc(-c2nc3ccc([N+](=O)[O-])cc3n2O)c(F)c1)c1ccc(F)cc1 [AH] | 10.1 to 25 | 10.1 to 25 | * (key: *: percent cytotoxicity above 75% at 50 μg/mL; **: cytotoxicities below 75% at 50 μg/mL) | * (percent cytotoxicities above 75% at 50 mg/mL) |
| COc1cc(NC(=O)c2ccc(F)cc2)ccc1-c1nc2ccc([N+](=O)[O-])cc2n1O [AI] | > 25.1 | 10.1 to 25 | * (key: *: percent cytotoxicity above 75% at 50 μg/mL; **: cytotoxicities below 75% at 50 μg/mL) | * (percent cytotoxicities above 75% at 50 mg/mL) |
| O=C(Nc1ccc(-c2nc3ccc([N+](=O)[O-])cc3n2O)cn1)c1ccc(F)cc1 [AJ] | 10.1 to 25 | 10.1 to 25 | * (key: *: percent cytotoxicity above 75% at 50 μg/mL; **: cytotoxicities below 75% at 50 μg/mL) | * (percent cytotoxicities above 75% at 50 mg/mL) |
| O=C(/C=C/c1ccc(F)c(CP(=O)(O)O)c1)Nc1ccc(-c2nc3ccc([N+](=O)[O-])cc3n2O)cc1 [AM] | 10.1 to 25 | 10.1 to 25 | * (key: *: percent cytotoxicity above 75% at 50 μg/mL; **: cytotoxicities below 75% at 50 μg/mL) | * (percent cytotoxicities above 75% at 50 mg/mL) |
| O=C(/C=C/c1ccc(F)cc1)Nc1ccc(-c2nc3ccc([N+](=O)[O-])cc3n2O)cn1 [AN] | < 10 | < 10 | * (key: *: percent cytotoxicity above 75% at 50 μg/mL; **: cytotoxicities below 75% at 50 μg/mL) | * (percent cytotoxicities above 75% at 50 mg/mL) |
| O=C(/C=C/c1ccc(F)cc1)Nc1ccc(-c2nc3ccc([N+](=O)[O-])cc3n2O)nc1 [AO] | 10.1 to 25 | < 10 | * (key: *: percent cytotoxicity above 75% at 50 μg/mL; **: cytotoxicities below 75% at 50 μg/mL) | * (percent cytotoxicities above 75% at 50 mg/mL) |
| O=C(/C=C/c1ccc(F)cc1F)Nc1ccc(-c2nc3ccc([N+](=O)[O-])cc3n2O)nc1 [AP] | < 10 | < 10 | * (key: *: percent cytotoxicity above 75% at 50 μg/mL; **: cytotoxicities below 75% at 50 μg/mL) | * (percent cytotoxicities above 75% at 50 mg/mL) |
| O=C(/C=C/c1ccc(F)cc1F)Nc1ccc(-c2nc3ccc([N+](=O)[O-])cc3n2O)cn1 [AQ] | < 10 | < 10 | * (key: *: percent cytotoxicity above 75% at 50 μg/mL; **: cytotoxicities below 75% at 50 μg/mL) | * (percent cytotoxicities above 75% at 50 mg/mL) |
| CCOP(=O)(Cc1cc(/C=C/C(=O)Nc2ccc(-c3nc4ccc([N+](=O)[O-])cc4n3O)cc2)ccc1F)OCC [AT] | < 10 | < 10 | * (key: *: percent cytotoxicity above 75% at 50 μg/mL; **: cytotoxicities below 75% at 50 μg/mL) | * (percent cytotoxicities above 75% at 50 mg/mL) |
| O=C(/C=C/c1ccc(F)cc1)Nc1ccc(-c2nc3ncc([N+](=O)[O-])cc3n2O)c(F)c1 [AV] | < 10 | < 10 | * (key: *: percent cytotoxicity above 75% at 50 μg/mL; **: cytotoxicities below 75% at 50 μg/mL) | * (percent cytotoxicities above 75% at 50 mg/mL) |
| O=C(/C=C/c1ccc(F)cc1)Nc1ccc(-c2nc3ccc([N+](=O)[O-])cc3n2O)c(F)c1 [AW] | < 10 | 10.1 to 25 | ** (key: *: percent cytotoxicity above 75% at 50 μg/mL; **: cytotoxicities below 75% at 50 μg/mL) | * (percent cytotoxicities above 75% at 50 mg/mL) |
| CC(=O)c1ccc(C(=O)Nc2ccc(-c3nc4cc(C)c([N+](=O)[O-])cc4n3O)cc2)cc1 [BE] | < 10 | < 10 | * (key: *: percent cytotoxicity above 75% at 50 μg/mL; **: cytotoxicities below 75% at 50 μg/mL) | * (percent cytotoxicities above 75% at 50 mg/mL) |
| COc1cc(NC(=O)c2ccc(C(C)=O)cc2)ccc1-c1nc2ccc([N+](=O)[O-])cc2n1O [BG] | > 25.1 | 10.1 to 25 | * (key: *: percent cytotoxicity above 75% at 50 μg/mL; **: cytotoxicities below 75% at 50 μg/mL) | ** (cytotoxicities below 75% at 50 mg/mL) |
| COc1cc(NC(=O)/C=C/c2ccc(F)cc2)ccc1-c1nc2ccc([N+](=O)[O-])cc2n1O [BH] | 10.1 to 25 | 10.1 to 25 | * (key: *: percent cytotoxicity above 75% at 50 μg/mL; **: cytotoxicities below 75% at 50 μg/mL) | * (percent cytotoxicities above 75% at 50 mg/mL) |
| O=C(Nc1ccc(-c2nc3ccc([N+](=O)[O-])cc3n2O)cc1)C1=Cc2ccccc2OC1 [BM] | 10.1 to 25 | 10.1 to 25 | * (key: *: percent cytotoxicity above 75% at 50 μg/mL; **: cytotoxicities below 75% at 50 μg/mL) | * (percent cytotoxicities above 75% at 50 mg/mL) |
| O=C(/C=C/c1ccc(F)cc1)Nc1ccc(-c2nc3ccc([N+](=O)[O-])cc3n2OCP(=O)(O)O)cc1 [Compound AL, (2-{4-[(E)-3-(4-Fluoro-phenyl)-acryloylamino]-phenyl}-6-nitro-benzoimidazol-1-yloxymethyl)-phosphonic Acid] | < 10 | < 10 | ** (key: *: percent cytotoxicity above 75% at 50 μg/mL; **: cytotoxicities below 75% at 50 μg/mL) | * (percent cytotoxicities above 75% at 50 mg/mL) |
| CCOP(=O)(COn1c(-c2ccc(NC(=O)/C=C/c3ccc(F)cc3)cc2)nc2ccc([N+](=O)[O-])cc21)OCC [Compound AS, (2-{4-[(E)-3-(4-Fluoro-phenyl)-acryloylamino]-phenyl}-6-nitro-benzoimidazol-1-yloxymethyl)-phosphonic Acid Diethyl Ester] | > 25.1 | 10.1 to 25 | * (key: *: percent cytotoxicity above 75% at 50 μg/mL; **: cytotoxicities below 75% at 50 μg/mL) | * (percent cytotoxicities above 75% at 50 mg/mL) |
| O=C(/C=C/c1ccc(F)cc1)Nc1ccc(-c2nc3ccc([N+](=O)[O-])cc3n2O)cc1F [Compound AZ, (E)-N-[2-Fluoro-4-(1-hydroxy-6-nitro-1H-benzoimidazol-2-yl)-phenyl]-3-(4-fluoro-phenyl)-acrylamide] | 10.1 to 25 | 10.1 to 25 | * (key: *: percent cytotoxicity above 75% at 50 μg/mL; **: cytotoxicities below 75% at 50 μg/mL) | * (percent cytotoxicities above 75% at 50 mg/mL) |
| N#Cc1ccc2nc(-c3ccc(NC(=O)/C=C/c4ccccc4)cc3)n(O)c2c1 [Compound A] | 10.1 to 25 | 10.1 to 25 | * (key: *: percent cytotoxicity above 75% at 50 μg/mL; **: cytotoxicities below 75% at 50 μg/mL) | * (percent cytotoxicities above 75% at 50 mg/mL) |
| CC(=O)c1ccc(C(=O)Nc2ccc(-c3nc4ccc([N+](=O)[O-])cc4n3O)cc2F)cc1 [Compound BA, 4-Acetyl-N-[2-fluoro-4-(1-hydroxy-6-nitro-1H-benzoimidazol-2-yl)-phenyl]-benzamide] | 10.1 to 25 | < 10 | * (key: *: percent cytotoxicity above 75% at 50 μg/mL; **: cytotoxicities below 75% at 50 μg/mL) | * (percent cytotoxicities above 75% at 50 mg/mL) |
| Cc1cc2nc(-c3ccc(NC(=O)/C=C/c4ccc(F)cc4)cc3)n(O)c2cc1[N+](=O)[O-] [Compound BC, (E)-3-(4-Fluoro-phenyl)-N-[4-(1-hydroxy-5-methyl-6-nitro-1H-benzoimidazol-2-yl)-phenyl]-acrylamide] | < 10 | < 10 | ** (key: *: percent cytotoxicity above 75% at 50 μg/mL; **: cytotoxicities below 75% at 50 μg/mL) | ** (cytotoxicities below 75% at 50 mg/mL) |
